Experimental data as given in US10851400B2, “Assay for high-throughput identification of therapeutic compounds” (priority 2016, dated 2020).
≈ marks a conversion by molar mass, not a printed value.

Tests used:
[1] = tested on: ESKAPE pathogens; assay: Broth MIC assay of K15 against the panel of seven ESKAPE pathogens; format: cell-based; details: seven pathogens tested
Description: (§1) Peptoid K15 was analyzed via a traditional broth minimum inhibitor concentration (MIC) assay against seven different ESKAPE pathogens (Acinetobacter baumanii, ATCC 19606; Enterococcus faecalis, ATCC 29212; Enterococcus faecium, ATCC 19434; Escherichia coli, ATCC 25922; Klebsiella pneumoniae, ATCC 700603; Pseudomonas aeruginosa, ATCC 27853; Staphylococcus aureus, ATCC 29213). For each of the bacterial strains screened in the ESKAPE panel, 1-3 isolated colonies were collected from a TSA plate by a flame sanitized wire loop and resuspended in 5 mL of TSB. The solutions were incubated at 37° C. for 18-24 hours. After the growth period, the turbidity was measured at 600 nm and adjusted to an optical density of 0.08-0.13 by diluting with TSB for an approximate concentration of 1×10^8 CFU/mL. Once the desired OD was achieved, 20 μL of the bacteria suspension were diluted 1:20 in 380 μL Cation Adjusted Mueller-Hinton broth (CAMHB) for a final concentration of 5×10^6 CFU/mL.
(§2) 4 μL of a 10 mM stock of K15 were diluted in […] CAMHB for each bacterial strain assayed (a total of 28 μL stock in 2.478 mL broth for ESKAPE panel). […]
(§3) The prepared plates were incubated for another 18-24 hours. Their respective absorbance at 600 nm was analyzed on a SpectraMax M5 Plate Reader. […] Absorbance at 555, 570, and 585 nm was analyzed to determine viable cells having survived treatment by the antimicrobial compound. […]

[2] = tested on: Enterococcus faecium, ATCC 19434; assay: Broth minimum inhibitory concentration (MIC) assay of K15; format: cell-based; details: E. faecium; broth MIC in CAMHB, 18-24 hours
Description: as §1, §2, §3

[3] = tested on: Acinetobacter baumanii, ATCC 19606; assay: as above; format: cell-based, Acinetobacter baumannii; details: A. baumannii; broth MIC in CAMHB, 18-24 hours
Description: as §1, §2, §3

[4] = tested on: E. coli (ATCC 25922); assay: PLAD assay, zone of inhibition around beads in soft agar

CCCCCCCCCCCCCNCC(=O)N(CCN)CC(=O)N(CC(N)=O)C(C)c1ccccc1 (stereo not drawn) [K15, NTri-Nae-NPea]
antimicrobial efficacy against the ESKAPE pathogens [1]: modest efficacy against six of the seven pathogens tested | MIC [2]: 25 µg/mL (≈ 48.3 µM) | MIC [3]: 25 µg/mL (≈ 48.3 µM) | zone of inhibition ([4]; proof-of-concept library on PLAD linker, 14 mM TCEP, 37° C. for 18 hours): largest average zone of inhibition

NTri-NLys-NPea-NPea-NLys [C134mer, reference compound]
zone of inhibition ([4]; PLAD linked C134mer beads, DTT, BME or TCEP at 0, 2, 6, 10, and 14 mM): concentration dependent zones of inhibition
